The record followed here is patent publication US20080214537A1, “BRIDGED PHENANTHRIDINES” (CARA THERAPEUTICS, INC., priority 2007, published 2008).

Assay [1] deals with human CB2 receptor (hCB2) (Homo sapiens, UniProt P34972). The assay is described as follows: cAMP assay (LANCE TR-FRET) in CHO-K1 cells expressing hCB2. The format is cell-based. As to conditions: for Emax: CHO-K1, intrinsic activity: percent maximal activation compared to full activation by CP55,940 (1 μM = 100%), read-out: hCB2 % Max Range; for EC50: CHO-K1 cells stably expressing hCB2, intracellular cAMP, NKH-477 prestimulated, average of at least three replicates. As for the experimental part: (§1) The ability of compounds to act as agonists or inverse agonists at human CB2 and CB1 receptors (hCB2, hCB1, respectively) was determined by measuring changes in intracellular cAMP levels. Chinese Hamster Ovary (CHO-K1) cell lines stably expressing hCB2 (Genebank: X74328) or hCB1 (Genebank: X54937) were purchased from Euroscreen (Gosselies, Belgium).
human CB2 receptor (hCB2), sequence (P34972 whole entry): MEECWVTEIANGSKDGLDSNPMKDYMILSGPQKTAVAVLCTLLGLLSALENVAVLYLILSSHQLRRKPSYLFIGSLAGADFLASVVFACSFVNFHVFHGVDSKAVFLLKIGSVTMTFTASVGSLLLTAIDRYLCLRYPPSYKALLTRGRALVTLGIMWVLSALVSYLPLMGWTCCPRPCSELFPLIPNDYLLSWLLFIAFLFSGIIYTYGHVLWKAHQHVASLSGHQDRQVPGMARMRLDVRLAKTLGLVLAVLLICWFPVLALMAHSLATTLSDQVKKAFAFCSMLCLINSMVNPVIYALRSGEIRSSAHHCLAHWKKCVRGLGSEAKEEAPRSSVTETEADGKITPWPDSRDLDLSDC
(§2) Cell lines were grown in suspension in EX-CELL 302 CHO Serum-free medium (Sigma, catalog #14324C) supplemented with 1% Fetal Bovine Serum, glutamine and with or without non-essential amino-acids under 0.4 mg/mL G418 selection.
(§3) Receptor mediated responses were determined by measuring changes in intracellular cAMP using LANCE cAMP detection kit (catalog #AD0264, PerkinElmer, Wellesley, Mass.) based on time-resolved fluorescence resonance energy transfer (TR-FRET). Changes in cAMP were determined in cells pre-incubated with IBMX (isobutyl methylxanthine) and prestimulated with NKH-477 (a water soluble forskolin derivative, catalog #1603, Tocris, Ellisville, Mo.) to increase basal cAMP levels as detailed below.
(§4) On the day of the experiment, cells were spun at low speed for 5 min at room temperature. The supernatant was removed and cells were resuspended in stimulation buffer (Hanks Buffered Salt Solution/5 mM HEPES, containing 0.5 mM IBMX (catalog #17018, Sigma) and 0.02% BSA (PerkinElmer, catalog #CR84-100)). Cell clumps were removed by filtering through cell strainer 40 μm (BD Falcon, Discovery Labware, Bedford, Mass.) and diluted to 2×10^5 cells/mL. Antibody supplied with the LANCE cAMP immunoassay kit was then added according to the manufacturer's instructions. An aliquot of cells was taken for un-induced controls. To the remaining cells was added NKH-477 (a water soluble forskolin derivative, Tocris catalog #1603) to a final concentration of 2-8 μM. Cells were then incubated for either 25 or 30 min at room temperature prior to adding to Proxiplates containing test compounds (final DMSO concentration was less than 0.5%) with a Multidrop bulk dispenser, followed by a sixty minute incubation at room temperature. The response was stopped by addition of the detection mix supplied with the LANCE kit.
(§5) The reagents were allowed to equilibrate for three hours prior to reading on an Envision multi-mode detector (PerkinElmer). TR-FRET was measured using a 330-380 nm excitation filter, 615 and 665 nm emission filters, dichroic mirror 380 nm and Z=1 mm.
(§6) Cyclic AMP concentrations in each well were back-calculated from a cAMP standard curve run concurrently during each assay. Each plate contained 16 wells of forskolin stimulated cells and 16 wells of forskolin plus CP55,940-treated. CP55,940-treated cells were treated with CP55,940 (Tocris catalog #0949) at 1 μM and the maximal response was used as the full range (100%) standard. WIN55,212 (Tocris catalog #1038) was used as an internal standard. Concentrations of cAMP were expressed as a percent of the difference of these two groups of wells. Concentration-response data including EC50 (the concentration of compound producing 50% of the maximal response) and intrinsic activity (the percent maximal activation compared to full activation by CP55,940) were determined using a four-parameter non-linear regression algorithm (Xlfit equation 251, IDBS). Assays were performed with at least three replicates per compound and averaged results for the several compounds of the invention are shown in Table I.
(In general: Cyclic AMP is a second messenger, typically raised through Gs and lowered through Gi signalling.)

Assay [2] deals with human CB1 receptor (hCB1) (Homo sapiens, UniProt P21554). The assay is described as follows: cAMP assay (LANCE TR-FRET) in CHO-K1 cells expressing hCB1. The format is cell-based. As to conditions: activity on hCB1 represents inverse agonism; for Emax: CHO-K1, percent of range defined by CP55,940 (1 μM = 100%), read-out: hCB1 % Max Range; for EC50: CHO-K1 cells stably expressing hCB1, intracellular cAMP, NKH-477 prestimulated. As for the experimental part:
as §1, §2, §3, §4, §5
as §6, with “IDBS).” for “IDBS). Assays were performed with at least three replicates per compound and averaged results for the several compounds of the invention are shown in Table I.”

human CB1 receptor (hCB1), sequence (P21554 whole entry): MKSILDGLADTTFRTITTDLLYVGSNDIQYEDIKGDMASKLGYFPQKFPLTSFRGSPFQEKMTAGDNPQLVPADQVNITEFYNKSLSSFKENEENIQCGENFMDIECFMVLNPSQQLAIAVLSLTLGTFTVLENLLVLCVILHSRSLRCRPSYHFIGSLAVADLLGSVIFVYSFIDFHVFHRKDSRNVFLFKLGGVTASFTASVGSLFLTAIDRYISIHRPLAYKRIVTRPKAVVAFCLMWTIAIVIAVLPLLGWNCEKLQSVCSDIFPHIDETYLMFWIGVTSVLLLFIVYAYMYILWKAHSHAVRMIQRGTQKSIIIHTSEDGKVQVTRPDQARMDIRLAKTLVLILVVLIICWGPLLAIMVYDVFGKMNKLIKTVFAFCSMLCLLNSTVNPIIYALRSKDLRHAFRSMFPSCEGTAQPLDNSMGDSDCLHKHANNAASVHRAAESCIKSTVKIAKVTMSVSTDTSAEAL

Take `Cc1ccc(C2Nc3ccc(NC(=O)C4CC4)cc3C3C4CCC(C4)C23)cc1` (stereo not drawn) [(22), Bridged N-(6-p-tolyl-5,6,6a,7,8,9,10,10a-octahydrophenanthridin-2-yl)cyclopropanecarboxamide]: in assay [1], the Emax stood at 53% and the EC50 was 0.014 µM. In assay [2], the Emax was determined as 115% and it took 1.81 µM to reach a half-maximal effect (EC50).
Consider `CC(=O)Nc1ccc2c(c1)C1C3CCC(C3)C1C(c1ccccc1)N2` (stereo not drawn) [(23), Bridged N-(6-phenyl-5,6,6a,7,8,9,10,10a-octahydrophenanthridin-2-yl)acetamide], for which, in assay [1], the Emax stood at 82% and the midpoint of the response, the EC50, lay at 0.043 µM. Moreover, in assay [2], the Emax stood at 88% and the concentration giving a half-maximal response (EC50) was found to be 2.61 µM.
In the same order, the values of `CC(=O)Nc1ccc2c(c1)C1C3CCC(C3)C1C(c1c(Cl)cccc1Cl)N2` (stereo not drawn) [(24), Bridged N-(6-(2,6-dichlorophenyl)-5,6,6a,7,8,9,10,10a-octahydrophenanthridin-2-yl)acetamide] are less than 40%, more than 10 µM, less than 40% and more than 10 µM.
As for `CCCNC(=O)Nc1ccc2c(c1)C1C3CCC(C3)C1C(c1c(Cl)cccc1Cl)N2` (stereo not drawn) [(26), Bridged 1-(6-(2,6-dichlorophenyl)-5,6,6a,7,8,9,10,10a-octahydrophenanthridin-2-yl)-3-propylurea], the Emax in assay [1] and in assay [2] was less than 40% in each case. In addition, the EC50 in assay [1] and in assay [2] was more than 10 µM each time.
As to `CCCNC(=S)Nc1ccc2c(c1)C1C3CCC(C3)C1C(c1c(Cl)cccc1Cl)N2` (stereo not drawn) [(27), Bridged 1-(6-(2,6-dichlorophenyl)-5,6,6a,7,8,9,10,10a-octahydrophenanthridin-2-yl)-3-propylthiourea], in assay [1], the Emax is less than 40% and the EC50 was more than 10 µM. In assay [2], the Emax was less than 40% and the EC50 was more than 10 µM.
Regarding `O=C(NCc1ccccc1)c1ccc2c(c1)C1C3CCC(C3)C1C(c1ccccc1)N2` (stereo not drawn) [(28), Bridged N-benzyl-6-phenyl-5,6,6a,7,8,9,10,10a-octahydrophenanthridine-2-carboxamide], the Emax is 84.4% in assay [1] and less than 40% in assay [2]. Besides, the concentration for a half-maximal effect (EC50) in assay [1] is 0.373 µM; in assay [2], more than 10 µM.
In the same order, the values of `CCCCC(=O)Nc1ccc2c(c1)C1C3CCC(C3)C1C(c1ccc(C)cc1)N2` (stereo not drawn) [(29), Bridged N-(6-p-tolyl-5,6,6a,7,8,9,10,10a-octahydrophenanthridin-2-yl)pentanamide] are 54.8%, less than 40%, 0.0667 µM and more than 10 µM.
With `CN(C)S(=O)(=O)c1ccc2c(c1)C1C3CCC(C3)C1C(c1cncnc1)N2` (stereo not drawn) [(30), Bridged N,N-dimethyl-6-(pyrimidin-5-yl)-5,6,6a,7,8,9,10,10a-octahydrophenanthridine-2-sulfonamide], in assay [1], the Emax stood at 99.3% and it took 0.0728 µM to reach a half-maximal effect (EC50). In assay [2], the Emax is less than 40% and the EC50 was more than 10 µM.
In the same order, the values of `CN(C)S(=O)(=O)c1ccc2c(c1)C1C3CCC(C3)C1C(c1nccs1)N2` (stereo not drawn) [(31), Bridged N,N-dimethyl-6-(thiazol-2-yl)-5,6,6a,7,8,9,10,10a-octahydrophenanthridine-2-sulfonamide] are 89.2%, 0.103 µM, less than 40% and more than 10 µM.
For `CC(=O)Nc1ccc(C2Nc3ccc(S(=O)(=O)N(C)C)cc3C3C4CCC(C4)C23)cc1` (stereo not drawn) [(32), Bridged N-(4-(2-(N,N-dimethylsulfamoyl)-5,6,6a,7,8,9,10,10a-octahydrophenanthridin-6-yl)phenyl)acetamide], in that order: 81.3%, 0.225 µM, less than 40% and more than 10 µM.
In the same order, the values of `CN(C)S(=O)(=O)c1ccc2c(c1)C1C3CCC(C3)C1C(c1ccnn1C)N2` (stereo not drawn) [(33), Bridged N,N-dimethyl-6-(1-methyl-1H-pyrazol-5-yl)-5,6,6a,7,8,9,10,10a-octahydrophenanthridine-2-sulfonamide] are 94.9%, 0.0075 µM, less than 40% and more than 10 µM.
On to `O=S(=O)(c1ccc2c(c1)C1C3CCC(C3)C1C(c1cncnc1)N2)N1CCOCC1` (stereo not drawn) [(35), Bridged 4-(6-(pyrimidin-5-yl)-5,6,6a,7,8,9,10,10a-octahydrophenanthridin-2-ylsulfonyl)morpholine], for which, in assay [1], the Emax amounted to 66.6% and the EC50 came out at 1.3 µM. For the same compound, in assay [2], the Emax is less than 40% and the EC50 was more than 10 µM.
In the same order, the values of `O=S(=O)(c1ccc2c(c1)C1C3CCC(C3)C1C(c1nccs1)N2)N1CCOCC1` (stereo not drawn) [(36), Bridged 4-(6-(thiazol-2-yl)-5,6,6a,7,8,9,10,10a-octahydrophenanthridin-2-ylsulfonyl)morpholine] are 57.1%, 4.12 µM, less than 40% and more than 10 µM.
In the case of `Cn1nccc1C1Nc2ccc(S(=O)(=O)N3CCOCC3)cc2C2C3CCC(C3)C12` (stereo not drawn) [(37), Bridged 4-(6-(1-methyl-1H-pyrazol-5-yl)-5,6,6a,7,8,9,10,10a-octahydrophenanthridin-2-ylsulfonyl)morpholine], in assay [1], the Emax was 92.6% and the response was half-maximal at 0.0017 µM (EC50). Also, in assay [2], the Emax is less than 40% and the EC50 is more than 10 µM.
`CN(C1CCCCC1)S(=O)(=O)c1ccc2c(c1)C1C3CCC(C3)C1C(c1ccccc1)N2` (stereo not drawn) [(38), Bridged N-cyclohexyl-N-methyl-6-phenyl-5,6,6a,7,8,9,10,10a-octahydrophenanthridine-2-sulfonamide]: in assay [1], the Emax came to 79.5% and the EC50 is 0.0085 µM. In assay [2], the Emax is less than 40% and the EC50 was more than 10 µM.
As for `NS(=O)(=O)c1ccc2c(c1)C1C3CCC(C3)C1C(c1ccccc1)N2` (stereo not drawn) [(39), Bridged 6-phenyl-5,6,6a,7,8,9, 10,10a-octahydrophenanthridine-2-sulfonamide], the Emax in assay [1] is 83.3%; in assay [2], 172%. In addition, the EC50 in assay [1] came out at 0.0177 µM; in assay [2] it was 3.04 µM.
For `Cn1nccc1C1Nc2ccc(S(N)(=O)=O)cc2C2C3CCC(C3)C12` (stereo not drawn) [(40), Bridged 6-(1-methyl-1H-pyrazol-5-yl)-5,6,6a,7,8,9,10,10a-octahydrophenanthridine-2-sulfonamide], in that order: 82.7%, less than 40%, 2 µM and more than 10 µM.
For the compound `O=S(=O)(c1ccc2c(c1)C1C3CCC(C3)C1C(c1ccccc1)N2)N1CCCC1` (stereo not drawn) [(41), Bridged 6-phenyl-2-(pyrrolidin-1-ylsulfonyl)-5,6,6a,7,8,9,10,10a-octahydrophenanthridine], the Emax is 104% in assay [1] and less than 40% in assay [2]. Besides, the EC50 in assay [1] was 0.00081 µM; in assay [2] it was more than 10 µM.

One may read the EC50 as the midpoint of the concentration-response curve.
